Measured values published in patent US7265103B2, “Substituted amino isoxazoline derivatives and their use as anti-depressants” (Janssen Pharmaceutica NV., priority 2002, dated 2007).
pIC50: −log10 of the molar value.

What was measured:
hα2C receptor = molecular target: T1, hα2C receptor (Homo sapiens, UniProt P18825); test: Radioligand binding experiment for α2C-adrenergic receptor ([3H]-raulwolscine); conditions: CHO cell membranes with human α2C receptor, [3H]raulwolscine 1 nM; read-out: pIC50 α2C (converted)
T1 construct: expressed in transfected cells; host or cells: CHO cells
T1 sequence (P18825 1-462): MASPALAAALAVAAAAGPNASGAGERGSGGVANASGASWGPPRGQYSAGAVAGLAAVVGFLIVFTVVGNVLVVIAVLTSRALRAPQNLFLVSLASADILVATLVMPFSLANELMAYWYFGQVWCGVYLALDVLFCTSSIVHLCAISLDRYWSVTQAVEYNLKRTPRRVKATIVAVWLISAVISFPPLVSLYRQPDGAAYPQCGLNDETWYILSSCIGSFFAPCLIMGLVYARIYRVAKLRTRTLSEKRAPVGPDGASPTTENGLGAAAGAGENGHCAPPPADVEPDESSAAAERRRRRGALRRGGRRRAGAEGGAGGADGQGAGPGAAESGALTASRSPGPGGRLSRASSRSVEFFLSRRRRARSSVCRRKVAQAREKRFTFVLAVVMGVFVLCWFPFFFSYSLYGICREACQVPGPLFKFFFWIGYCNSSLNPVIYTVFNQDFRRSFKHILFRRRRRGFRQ
Method in brief: (§1)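 Membranes from CHO cells stably expressing human α2A or α2C receptors (sodium butyrate-induced) incubated with 1 nM [3H]raulwolscine in 25 mM glycylglycine pH 8.0 for 60 min at 25° C, then filtered. Non-specific binding defined with 1 μM oxymetazoline (α2A) or 1 μM spiroxatrine (α2C); pIC50 from sigmoidal competition curves.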

h5-HT transporter = molecular target: T2, h5-HT transporter (Homo sapiens, UniProt P31645); test: Radioligand binding experiment for 5-HT transporter ([3H]paroxetine); conditions: human platelet membranes, [3H]paroxetine 0.5 nM
T2 construct: Human platelet membranes (Oceanix Biosciences Corporation, Hanover, Md., USA) were thawed; tissue Oceanix Biosciences Corporation; host or cells: human platelet membranes
T2 sequence (P31645 whole entry): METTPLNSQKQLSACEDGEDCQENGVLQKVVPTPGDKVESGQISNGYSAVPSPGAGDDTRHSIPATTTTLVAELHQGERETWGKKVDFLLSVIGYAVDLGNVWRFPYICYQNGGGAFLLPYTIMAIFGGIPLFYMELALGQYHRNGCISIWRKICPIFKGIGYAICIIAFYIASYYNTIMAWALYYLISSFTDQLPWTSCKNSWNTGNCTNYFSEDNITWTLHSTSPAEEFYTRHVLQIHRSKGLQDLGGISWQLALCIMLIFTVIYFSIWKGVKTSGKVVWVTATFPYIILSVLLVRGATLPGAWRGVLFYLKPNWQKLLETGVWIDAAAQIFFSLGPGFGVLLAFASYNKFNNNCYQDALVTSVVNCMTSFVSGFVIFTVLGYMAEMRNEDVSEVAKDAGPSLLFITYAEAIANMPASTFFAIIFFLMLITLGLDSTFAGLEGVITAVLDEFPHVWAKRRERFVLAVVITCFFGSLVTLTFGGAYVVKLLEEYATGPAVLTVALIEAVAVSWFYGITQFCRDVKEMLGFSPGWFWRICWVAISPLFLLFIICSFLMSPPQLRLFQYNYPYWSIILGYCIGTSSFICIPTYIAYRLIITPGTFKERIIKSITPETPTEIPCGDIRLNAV
Method in brief: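 Competition binding on human platelet membranes (50-100 μg protein) in 50 mM Tris-HCl, 120 mM NaCl, 5 mM KCl with 0.5 nM [3H]paroxetine, 60 min at 25 °C, filtration and scintillation counting. Non-specific binding defined with 1 μM imipramine; pIC50 from nonlinear sigmoidal fits of percent total binding.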

hα2A receptor = molecular target: T3, hα2A receptor (Homo sapiens, UniProt P08913); test: Radioligand binding experiment for α2A-adrenergic receptor ([3H]-raulwolscine); conditions: CHO cell membranes with human α2A receptor, [3H]raulwolscine 1 nM; read-out: pIC50 α2A (converted)
T3 construct: expressed in transfected cells; host or cells: CHO cells
T3 sequence (P08913 1-465): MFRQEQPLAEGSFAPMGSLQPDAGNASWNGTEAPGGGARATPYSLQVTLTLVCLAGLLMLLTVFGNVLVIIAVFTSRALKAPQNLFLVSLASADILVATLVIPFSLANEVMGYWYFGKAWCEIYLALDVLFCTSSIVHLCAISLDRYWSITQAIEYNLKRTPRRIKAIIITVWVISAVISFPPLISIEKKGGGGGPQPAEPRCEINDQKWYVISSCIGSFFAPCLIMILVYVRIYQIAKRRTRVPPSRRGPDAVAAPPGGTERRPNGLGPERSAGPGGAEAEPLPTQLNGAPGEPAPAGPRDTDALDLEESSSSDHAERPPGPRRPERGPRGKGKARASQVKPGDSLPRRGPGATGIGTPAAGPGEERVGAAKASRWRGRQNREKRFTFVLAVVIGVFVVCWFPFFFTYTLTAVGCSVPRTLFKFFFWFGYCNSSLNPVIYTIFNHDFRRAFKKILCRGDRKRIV
Method in brief: as §1

| Compound | IC50 (hα2C receptor) | pIC50 (h5-HT transporter) | melting point | IC50 (hα2A receptor) |
| --- | --- | --- | --- | --- |
| CC(=Cc1ccccc1)CN1CCN(CC2ON=C3c4ccc(Nc5ccc(F)cc5)cc4OCC32)CC1 (stereo not drawn) [Compound 42] | 0.0158 µM | 6.90 | 130.8 to 134.1 °C | 0.0316 µM |
| CC(=O)Nc1ccc2c(c1)OCC1C2=NOC1CN1CCN(C/C(C)=C/c2ccccc2)CC1 (stereo not drawn) [Compound 6] | 0.00251 µM | 7.30 | 112.1 to 126.7 °C | 0.00316 µM |
| Clc1ccc(CN2CCN(CC3ON=C4c5cc6c(cc5OCC43)NCCO6)CC2)cc1 (stereo not drawn) [Compound 94] | 0.0316 µM | 6.90 | 186.5 to 198 °C | 0.316 µM |
| CC(=Cc1ccc(F)cc1)CN1CCN(CC2ON=C3c4ccc(N5CCN(CC=Cc6ccccc6)CC5)cc4OCC32)CC1 (stereo not drawn) [Compound 81] | 0.02 µM | 7.20 | 154.9 to 160.4 °C | 0.126 µM |
| COc1ccc(NC(=O)Nc2ccc3c(c2)OCC2C3=NOC2CN2CCN(C/C(C)=C/c3ccccc3)CC2)cc1OC (stereo not drawn) [Compound 7] | 0.00501 µM | 7.50 | 202.2 to 207.1 °C | 0.0158 µM |
| C/C(=C\c1ccc(F)cc1)CN1CCN(CC2ON=C3c4ccc(NS(=O)(=O)c5ccc(C)cc5)cc4OCC32)CC1 (stereo not drawn) [Compound 3] | 0.0316 µM | 7.40 | 177 to 194.1 °C | 0.0794 µM |
| COCC(=O)N1CCOc2cc3c(cc21)OCC1C3=NOC1CN1CCN(C/C(C)=C/c2ccccc2)CC1 (stereo not drawn) [Compound 15] | 0.000794 µM | 8.00 | 118.9 to 127.6 °C | 0.00316 µM |
| C/C(=C\c1cccc(F)c1)CN1CCN(CC2ON=C3c4cc5c(cc4OCC32)NCCO5)CC1 (stereo not drawn) [Compound 89] | 0.001 µM | 8.40 | 145.4 to 153.1 °C | 0.00398 µM |
| CC(=Cc1ccccc1)CN1CCN(CC2ON=C3c4ccc(Nc5ccc(C)c(C)c5)cc4OCC32)CC1 (stereo not drawn) [Compound 46] | 0.0398 µM | 6.50 | 138.9 to 151.3 °C | 0.0631 µM |
